Here are results for ten compounds from ChEMBL document CHEMBL1938376, “In vitro and in silico studies of polycondensed diazine systems as anti-parasitic agents” (Bioorg Med Chem Lett, 2012).

SMILES strings stand for the structures.

The test system of one series is Plasmodium falciparum. In words: Antimalarial activity against chloroquine-sensitive Plasmodium falciparum GHA infected in human erythrocytes assessed as parasite growth after 72 hrs by malstat reagent based spectrophotometric method. The class given is functional, organism-based. The conditions noted are these: Plasmodium falciparum, GHA, 72 h.
The term IC50 denotes the concentration needed to halve the response being measured. Turning to `COC(=O)C1=NN(c2ccccc2)C2=CNc3c(C)cccc3N21`, the IC50 worked out at 64 µM.
Turning to `CCOC(=O)C1=NN(c2ccc(Cl)cc2)C2C3N(c4ccc(Cl)cc4)N=C(C(=O)OCC)N3c3[nH]c(-c4ccccc4)cc3N12` (stereo unspecified), the IC50 is 26.9 µM.
On the same count and under the same terms, the result for `COC(=O)C1=NN(c2ccccc2)[C@@H]2N1c1ccccc1N1C(C(=O)OC)=NN(c3ccccc3)[C@@]21C` (racemic) reads 11.6 µM.
Same read-out and setting: then `O=C(C1=NN(c2ccccc2)C2C3N(c4ccccc4)N=C(C(=O)c4ccccc4)N3c3ccccc3N12)c1ccccc1` (stereo unspecified), with 27.7 µM.
On the same count and under the same terms, the result for `CCOC(=O)C1=NN(c2ccc(Cl)cc2)[C@@H]2N1c1ccccc1N1C(C(=O)OCC)=NN(c3ccc(Cl)cc3)[C@@]21C` (racemic) reads 0.5 µM; that for `C1=NN(c2ccccc2)C2C3N(C=NN3c3ccccc3)c3ccccc3N12` (stereo unspecified), 29.8 µM; that for `C[C@]12[C@@H]3N(c4ccccc4)N=C(C(=O)c4ccccc4)N3c3ccccc3N1C(C(=O)c1ccccc1)=NN2c1ccccc1` (racemic), 8.23 µM.
Turning to `COC(=O)C1=NN(c2ccc(Cl)cc2)C2C3N(c4ccc(Cl)cc4)N=C(C(=O)OC)N3c3c(C)cccc3N12` (racemic), the IC50 came out at 42.6 µM.
On the same count and under the same terms, the result for `COC(=O)C1=NN(c2ccc(Cl)cc2)C2(C1)Nc1ccccc1N1C(C(=O)OC)=NN(c3ccc(Cl)cc3)C12` (racemic) reads 64 µM; that for `COC(=O)C1=NN(c2ccccc2)C2C3N(c4ccccc4)N=C(C(=O)OC)N3c3[nH]c(-c4ccccc4)cc3N12` (stereo unspecified), 6.87 µM.

The test system of another series is Trypanosoma cruzi. In words: Antiparasitic activity against nifurtimox-sensitive amastigotes of Trypanosoma cruzi Tulahuen expressing LacZ gene infected in human MRC5 cells using chlorophenolred b-Dgalacto-pyranoside as substrate by colorimetric method. The class given is functional, organism-based. To be noted: Trypanosoma cruzi, Tulahuen, MRC5.
Regarding `COC(=O)C1=NN(c2ccccc2)C2=CNc3c(C)cccc3N21`, the IC50 amounted to 64 µM.
Still for that read-out and setting: then `CCOC(=O)C1=NN(c2ccc(Cl)cc2)C2C3N(c4ccc(Cl)cc4)N=C(C(=O)OCC)N3c3[nH]c(-c4ccccc4)cc3N12` (stereo unspecified), with 40.3 µM; and `COC(=O)C1=NN(c2ccccc2)[C@@H]2N1c1ccccc1N1C(C(=O)OC)=NN(c3ccccc3)[C@@]21C` (racemic), with 4.29 µM; and `O=C(C1=NN(c2ccccc2)C2C3N(c4ccccc4)N=C(C(=O)c4ccccc4)N3c3ccccc3N12)c1ccccc1` (stereo unspecified), with 64 µM.
Still for that read-out and setting: then `CCOC(=O)C1=NN(c2ccc(Cl)cc2)[C@@H]2N1c1ccccc1N1C(C(=O)OCC)=NN(c3ccc(Cl)cc3)[C@@]21C` (racemic), with 64 µM; and `C1=NN(c2ccccc2)C2C3N(C=NN3c3ccccc3)c3ccccc3N12` (stereo unspecified), with 64 µM.
Same read-out and setting: the result for `C[C@]12[C@@H]3N(c4ccccc4)N=C(C(=O)c4ccccc4)N3c3ccccc3N1C(C(=O)c1ccccc1)=NN2c1ccccc1` (racemic) reads 10.1 µM; that for `COC(=O)C1=NN(c2ccc(Cl)cc2)C2C3N(c4ccc(Cl)cc4)N=C(C(=O)OC)N3c3c(C)cccc3N12` (racemic), 64 µM.
As for `COC(=O)C1=NN(c2ccc(Cl)cc2)C2(C1)Nc1ccccc1N1C(C(=O)OC)=NN(c3ccc(Cl)cc3)C12` (racemic), the IC50 came to 64 µM.
On the same count and under the same terms, then `COC(=O)C1=NN(c2ccccc2)C2C3N(c4ccccc4)N=C(C(=O)OC)N3c3[nH]c(-c4ccccc4)cc3N12` (stereo unspecified), with 64 µM.

A further series has as its system Trypanosoma brucei. In words: Antiparasitic activity against trypomastigote form of drug-sensitive Trypanosoma brucei assessed as inhibition of parasite growth after 4 days using alamar blue/resazurin staining by fluorimetric method. The class given is functional, organism-based. The conditions noted are these: Trypanosoma brucei, 96 h.
Consider `COC(=O)C1=NN(c2ccccc2)C2=CNc3c(C)cccc3N21`, for which the IC50 is 64 µM.
Same read-out and setting: then `CCOC(=O)C1=NN(c2ccc(Cl)cc2)C2C3N(c4ccc(Cl)cc4)N=C(C(=O)OCC)N3c3[nH]c(-c4ccccc4)cc3N12` (stereo unspecified), with 32.2 µM; and `COC(=O)C1=NN(c2ccccc2)[C@@H]2N1c1ccccc1N1C(C(=O)OC)=NN(c3ccccc3)[C@@]21C` (racemic), with 64 µM; and `O=C(C1=NN(c2ccccc2)C2C3N(c4ccccc4)N=C(C(=O)c4ccccc4)N3c3ccccc3N12)c1ccccc1` (stereo unspecified), with 2.03 µM.
In the case of `CCOC(=O)C1=NN(c2ccc(Cl)cc2)[C@@H]2N1c1ccccc1N1C(C(=O)OCC)=NN(c3ccc(Cl)cc3)[C@@]21C` (racemic), the 50% inhibitory concentration (IC50) amounted to 64 µM.
The same measure, in the same setting: the result for `C1=NN(c2ccccc2)C2C3N(C=NN3c3ccccc3)c3ccccc3N12` (stereo unspecified) reads 64 µM; that for `C[C@]12[C@@H]3N(c4ccccc4)N=C(C(=O)c4ccccc4)N3c3ccccc3N1C(C(=O)c1ccccc1)=NN2c1ccccc1` (racemic), 2.06 µM.
Same read-out and setting: then `COC(=O)C1=NN(c2ccc(Cl)cc2)C2C3N(c4ccc(Cl)cc4)N=C(C(=O)OC)N3c3c(C)cccc3N12` (racemic), with 64 µM; and `COC(=O)C1=NN(c2ccc(Cl)cc2)C2(C1)Nc1ccccc1N1C(C(=O)OC)=NN(c3ccc(Cl)cc3)C12` (racemic), with 64 µM.
On the same count and under the same terms, then `COC(=O)C1=NN(c2ccccc2)C2C3N(c4ccccc4)N=C(C(=O)OC)N3c3[nH]c(-c4ccccc4)cc3N12` (stereo unspecified), with 64 µM.

System in the next series: not listed separately
The experiment in a line: Selectivity index, ratio of IC50 for human MRC5 cells to IC50 for chloroquine-sensitive Plasmodium falciparum GHA. The class given is toxicity, cell-based. To be noted: read-out: Ratio IC50.
With `CCOC(=O)C1=NN(c2ccc(Cl)cc2)[C@@H]2N1c1ccccc1N1C(C(=O)OCC)=NN(c3ccc(Cl)cc3)[C@@]21C` (racemic), the selectivity ratio came out at 128.

System in the next series: not listed separately
The experiment in a line: Selectivity index, ratio of IC50 for human MRC5 cells to IC50 for nifurtimox-sensitive amastigotes of Trypanosoma cruzi. The class given is toxicity, cell-based. To be noted: read-out: Ratio IC50.
Turning to `COC(=O)C1=NN(c2ccccc2)[C@@H]2N1c1ccccc1N1C(C(=O)OC)=NN(c3ccccc3)[C@@]21C` (racemic), the selectivity ratio came out at 6.

System in another series: not listed separately
The experiment in a line: Solubility of the compound. The class given is physicochemical.
Conditions: not given
With `O=C(C1=NN(c2ccccc2)C2C3N(c4ccccc4)N=C(C(=O)c4ccccc4)N3c3ccccc3N12)c1ccccc1` (stereo unspecified), the solubility entry is “soluble”.
Same read-out and setting: then `CCOC(=O)C1=NN(c2ccc(Cl)cc2)[C@@H]2N1c1ccccc1N1C(C(=O)OCC)=NN(c3ccc(Cl)cc3)[C@@]21C` (racemic), with “soluble”.

System in the next series: not listed separately
In words: Selectivity index, ratio of IC50 for human MRC5 cells to IC50 for drug-sensitive trypomastigotes of Trypanosoma brucei. It counts as toxicity, cell-based. To be noted: read-out: Ratio IC50.
As for `O=C(C1=NN(c2ccccc2)C2C3N(c4ccccc4)N=C(C(=O)c4ccccc4)N3c3ccccc3N12)c1ccccc1` (stereo unspecified), the selectivity ratio came to 2.
Same read-out and setting: the result for `C[C@]12[C@@H]3N(c4ccccc4)N=C(C(=O)c4ccccc4)N3c3ccccc3N1C(C(=O)c1ccccc1)=NN2c1ccccc1` (racemic) reads 2.

The next series deals with Leishmania infantum. The experiment in a line: Antiparasitic activity against amastigotes of Leishmania infantum infected in mouse peritoneal macrophages after 5 days using giemsa staining by microscopic analysis. It counts as functional, organism-based. To be noted: Leishmania infantum, 120 h.
Consider `COC(=O)C1=NN(c2ccccc2)C2=CNc3c(C)cccc3N21`, for which 64 µM corresponded to half-maximal inhibition (IC50).
The same measure, in the same setting: the result for `CCOC(=O)C1=NN(c2ccc(Cl)cc2)C2C3N(c4ccc(Cl)cc4)N=C(C(=O)OCC)N3c3[nH]c(-c4ccccc4)cc3N12` (stereo unspecified) reads 64 µM; that for `COC(=O)C1=NN(c2ccccc2)[C@@H]2N1c1ccccc1N1C(C(=O)OC)=NN(c3ccccc3)[C@@]21C` (racemic), 64 µM; that for `O=C(C1=NN(c2ccccc2)C2C3N(c4ccccc4)N=C(C(=O)c4ccccc4)N3c3ccccc3N12)c1ccccc1` (stereo unspecified), 32.5 µM.
Turning to `CCOC(=O)C1=NN(c2ccc(Cl)cc2)[C@@H]2N1c1ccccc1N1C(C(=O)OCC)=NN(c3ccc(Cl)cc3)[C@@]21C` (racemic), 64 µM corresponded to half-maximal inhibition (IC50).
On the same count and under the same terms, then `C1=NN(c2ccccc2)C2C3N(C=NN3c3ccccc3)c3ccccc3N12` (stereo unspecified), with 64 µM; and `C[C@]12[C@@H]3N(c4ccccc4)N=C(C(=O)c4ccccc4)N3c3ccccc3N1C(C(=O)c1ccccc1)=NN2c1ccccc1` (racemic), with 8 µM.
`COC(=O)C1=NN(c2ccc(Cl)cc2)C2C3N(c4ccc(Cl)cc4)N=C(C(=O)OC)N3c3c(C)cccc3N12` (racemic) came in with an IC50 of 64 µM.
Still for that read-out and setting: the result for `COC(=O)C1=NN(c2ccc(Cl)cc2)C2(C1)Nc1ccccc1N1C(C(=O)OC)=NN(c3ccc(Cl)cc3)C12` (racemic) reads 64 µM; that for `COC(=O)C1=NN(c2ccccc2)C2C3N(c4ccccc4)N=C(C(=O)OC)N3c3[nH]c(-c4ccccc4)cc3N12` (stereo unspecified), 32.5 µM.

In another series the test system is MRC5. The experiment in a line: Cytotoxicity against human MRC5 cells after 4 to 7 days using alamar blue/resazurin staining by fluorescence assay. The class given is cell-based. To be noted: Homo sapiens, MRC5. For orientation: The colour change of resazurin is a common sign of viable cells or microbes.
`COC(=O)C1=NN(c2ccccc2)C2=CNc3c(C)cccc3N21` yielded an IC50 of 64 µM.
Same read-out and setting: then `CCOC(=O)C1=NN(c2ccc(Cl)cc2)C2C3N(c4ccc(Cl)cc4)N=C(C(=O)OCC)N3c3[nH]c(-c4ccccc4)cc3N12` (stereo unspecified), with 64 µM; and `COC(=O)C1=NN(c2ccccc2)[C@@H]2N1c1ccccc1N1C(C(=O)OC)=NN(c3ccccc3)[C@@]21C` (racemic), with 64 µM.
Same read-out and setting: the result for `O=C(C1=NN(c2ccccc2)C2C3N(c4ccccc4)N=C(C(=O)c4ccccc4)N3c3ccccc3N12)c1ccccc1` (stereo unspecified) reads 17.6 µM; that for `CCOC(=O)C1=NN(c2ccc(Cl)cc2)[C@@H]2N1c1ccccc1N1C(C(=O)OCC)=NN(c3ccc(Cl)cc3)[C@@]21C` (racemic), 64 µM.
Same read-out and setting: the result for `C1=NN(c2ccccc2)C2C3N(C=NN3c3ccccc3)c3ccccc3N12` (stereo unspecified) reads 64 µM; that for `C[C@]12[C@@H]3N(c4ccccc4)N=C(C(=O)c4ccccc4)N3c3ccccc3N1C(C(=O)c1ccccc1)=NN2c1ccccc1` (racemic), 64 µM.
Compound `COC(=O)C1=NN(c2ccc(Cl)cc2)C2C3N(c4ccc(Cl)cc4)N=C(C(=O)OC)N3c3c(C)cccc3N12` (racemic) displayed an IC50 of 64 µM.
The same measure, in the same setting: then `COC(=O)C1=NN(c2ccc(Cl)cc2)C2(C1)Nc1ccccc1N1C(C(=O)OC)=NN(c3ccc(Cl)cc3)C12` (racemic), with 64 µM; and `COC(=O)C1=NN(c2ccccc2)C2C3N(c4ccccc4)N=C(C(=O)OC)N3c3[nH]c(-c4ccccc4)cc3N12` (stereo unspecified), with 64 µM.

System in another series: not listed separately
The experiment in a line: Solubility of the compound in 13% DMSO/water. It counts as physicochemical. The conditions noted are these: buffer.
For `COC(=O)C1=NN(c2ccccc2)C2=CNc3c(C)cccc3N21`, the solubility entry is on record as “soluble”.
On the same count and under the same terms, the result for `CCOC(=O)C1=NN(c2ccc(Cl)cc2)C2C3N(c4ccc(Cl)cc4)N=C(C(=O)OCC)N3c3[nH]c(-c4ccccc4)cc3N12` (stereo unspecified) reads “soluble”; that for `COC(=O)C1=NN(c2ccccc2)[C@@H]2N1c1ccccc1N1C(C(=O)OC)=NN(c3ccccc3)[C@@]21C` (racemic), “soluble”; that for `O=C(C1=NN(c2ccccc2)C2C3N(c4ccccc4)N=C(C(=O)c4ccccc4)N3c3ccccc3N12)c1ccccc1` (stereo unspecified), “soluble”.
On the same count and under the same terms, then `CCOC(=O)C1=NN(c2ccc(Cl)cc2)[C@@H]2N1c1ccccc1N1C(C(=O)OCC)=NN(c3ccc(Cl)cc3)[C@@]21C` (racemic), with “soluble”.
Still for that read-out and setting: the result for `C1=NN(c2ccccc2)C2C3N(C=NN3c3ccccc3)c3ccccc3N12` (stereo unspecified) reads “soluble”; that for `C[C@]12[C@@H]3N(c4ccccc4)N=C(C(=O)c4ccccc4)N3c3ccccc3N1C(C(=O)c1ccccc1)=NN2c1ccccc1` (racemic), “soluble”.
As for `COC(=O)C1=NN(c2ccc(Cl)cc2)C2C3N(c4ccc(Cl)cc4)N=C(C(=O)OC)N3c3c(C)cccc3N12` (racemic), the solubility entry is recorded as “soluble”.
For `COC(=O)C1=NN(c2ccc(Cl)cc2)C2(C1)Nc1ccccc1N1C(C(=O)OC)=NN(c3ccc(Cl)cc3)C12` (racemic), the solubility entry is “soluble”.
On the same count and under the same terms, then `COC(=O)C1=NN(c2ccccc2)C2C3N(c4ccccc4)N=C(C(=O)OC)N3c3[nH]c(-c4ccccc4)cc3N12` (stereo unspecified), with “soluble”.
